Data on nine compounds can be found in PMC6770484, “Discovery of Orexant and Anorexant Agents with Indazole Scaffold Endowed with Peripheral Antiedema Activity” (Biomolecules, 2019).

The target of test [1] is T1, cannabinoid receptors (CB1), rat brain membranes (Rattus norvegicus, UniProt P20272).
T1 construct: Crude membrane fractions were prepared from the brain; from tissue; host or cells: Wistar rat whole brain, crude membrane fraction
Conditions: displacement of [3H]WIN55212-2, rat brain membranes; cited from earlier work.

Test [2] deals with T2, CB1 receptor G protein activation, rat brain membranes (Rattus norvegicus, UniProt P20272).
T2 construct: Crude membrane fractions were prepared from the brain; from tissue; host or cells: Wistar rat whole brain, crude membrane fraction
T2 sequence (P20272 whole entry): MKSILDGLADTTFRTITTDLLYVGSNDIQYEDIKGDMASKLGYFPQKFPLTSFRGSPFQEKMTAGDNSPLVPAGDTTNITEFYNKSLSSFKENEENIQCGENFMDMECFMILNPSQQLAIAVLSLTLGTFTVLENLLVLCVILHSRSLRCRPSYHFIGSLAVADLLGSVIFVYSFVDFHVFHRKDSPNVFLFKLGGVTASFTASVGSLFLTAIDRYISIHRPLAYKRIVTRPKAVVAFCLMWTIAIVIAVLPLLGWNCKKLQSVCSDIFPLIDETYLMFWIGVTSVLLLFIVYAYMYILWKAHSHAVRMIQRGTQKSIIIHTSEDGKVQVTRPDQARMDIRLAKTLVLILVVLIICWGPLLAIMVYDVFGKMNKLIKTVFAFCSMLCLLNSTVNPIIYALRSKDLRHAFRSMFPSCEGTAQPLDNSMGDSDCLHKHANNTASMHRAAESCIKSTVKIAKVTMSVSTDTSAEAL
The conditions noted are these: cited from earlier work; for [35S]GTPγS Binding Emax: basal = 100%; for EC50: read-out: [35S]GTPγS Binding EC50.

In the next test the test system is food intake. The experiment in a line: Feeding test (food intake). Type of test: in vivo, CD-1 male mice. Conditions: 10 mg/Kg i.p., fasted mice, 1-h test. The text has this: (§1) The international and national law and policies approved by Italian Ministry of Health were used to comply with all animal care and experimental procedures. Animal studies were advised in compliance with the ARRIVE guidelines and with the recommendations made by EU Directive 2010/63/EU for animal experiments and the Basel declaration including the 3Rs concept. CD-1 male mice (10–14 weeks of age, 25–30 g of weight) were bought from Charles River (Milan, Italy). Shortly after their arrival and for at least one week, they were kept in an animal care facility under controlled standard conditions of temperature (21 ± 1 °C), light (from 7:00 AM to 7:00 PM), and relative humidity (60 ± 10%). Access to drinking water and food was assured. All procedures were performed to decrease the number of animals used (n = 6 per group) and their distress.
The test was carried out as previously described. At 24 h before the start of a feeding test, all food was removed from the home cages of mice to be tested. The next day and at least 1 h before the feeding test began, the mice were transported to the laboratory. On test days, the animals were placed in the home cages for 30 min of drug assimilation, during which food was not available. Then compounds were intraperitoneally administered (10 mg/kg). Mice were transferred into transparent and individual plastic cages with thick white paper lining the bottom and access to a pre-measured amount of their regular lab chow (2 gr) for the 1-h test. At the end of 1 h, mice were repositioned into their home cage. The amount of food left in the trial cage, including crumbs, was measured, and the amount consumed was calculated. Feeding trials normally happened on Tuesdays and Fridays between 12:00 and 14:00 h.

Test [3] addresses T1, cannabinoid receptors (CB1), rat brain membranes. The experiment in a line: [3H]WIN55212-2 radioligand competition binding assay. The procedure:
(§2) Wistar rats were locally bred and handled according to the EU Directive 2010/63/EU and to the Regulations on Animal Protection (40/2013. (II. 14.) Korm. r.) of Hungary. Crude membrane fractions were prepared from the brain. Brains were quickly removed from the euthanized rats and directly put in an ice-cold 50 mM Tris–HCl buffer (pH 7.4). The collected tissue was then homogenized in 30 volumes (v/w) of an ice-cold buffer with a Braun Teflon-glass homogenizer at the highest rpm. The homogenate was centrifuged at 20,000× g for 25 min, and the resulting pellet was suspended in the same volume of a cold buffer followed by incubation at 37 °C for 30 min to remove endogenous ligands. Centrifugation was then repeated. The final pellets were taken up in five volumes of a 50 mM Tris–HCl (pH 7.4) buffer containing 0.32 M sucrose and stored at −80 °C. Prior to the experiment, aliquots were thawed and centrifuged at 20,000× g for 25 min and then they were resuspended in 50 mM Tris–HCl (pH 7.4), homogenized with a Douncer, followed by the determination of the protein concentration by the method of Bradford. The membrane suspensions were immediately used either in radioligand binding experiments or in [^35S]GTPγS functional assays.
Filtration was performed with a 24-well Brandel Cell Harvester (Gaithersburg, MD, USA). Filters were air-dried and immersed into Ultima Gold MV scintillation cocktail, and then radioactivity was measured with a TRI-CARB 2100TR liquid scintillation analyzer (Packard, Perkin Elmer, Waltham, MA, USA).

The target in test [4] is T2, CB1 receptor G protein activation, rat brain membranes. The experiment in a line: Ligand stimulated [35S]GTPγS binding assay. Type of test: biochemical. Conditions: for Emax: rat brain membranes, basal = 100%, mean ± S.E.M. The procedure: as §2
Rat brain membranes (30 µg protein/tube), prepared as described above, were incubated with 0.05 nM of [^35S]GTPγS (PerkinElmer) and 10^−10–10^−5 M unlabeled ligands in the presence of 30 µM of GDP, 100 mM of NaCl, 3 mM of MgCl2 and 1 mM of EGTA in a 50 mM Tris–HCl buffer (pH 7.4) for 60 min at 30 °C. Basal [^35S]GTPγS binding was measured in the absence of ligands and set as 100%. Nonspecific binding was determined by the addition of 10 µM unlabeled GTPγS and subtracted from total binding. Incubation, filtration and radioactivity measurements of the samples were carried out as described above.
In [^35S]GTPγS binding studies, data were expressed as the percentage stimulation of the specific [^35S]GTPγS binding over the basal activity and are given as means ±S.E.M. Each experiment was performed in triplicate and analyzed with sigmoid dose–response curve fitting to obtain potency (EC50) and efficacy (Emax) values. All data and curves were analyzed by GraphPad Prism 5.0 (San Diego, CA, USA).

In test [5] the test system is formalin-induced licking/biting. The experiment in a line: Formalin test. Type of test: in vivo, CD-1 male mice. Conditions: 100 μg/20 μL s.c., mice.
Description: as §1
Mice were located to adapt into the transparent cages individually (30 × 14 × 12 cm) for at least an hour before testing. They were injected with 20 μL of a 1% solution of formalin in saline. Then, the compounds were administered subcutaneously in the dorsal surface of the right hind paw of the mouse using a microsyringe with a 27-gauge needle for 15 min before. Compounds were prepared by freshly diluting saline containing 0.9% NaCl in the ratio DMSO:saline 1:3 (v/v). […] The total time the animal spent licking or biting its paw was calculated.

Test [6] has as its system zymosan-induced paw edema. The experiment in a line: Edema induced by zymosan. Type of test: in vivo, CD-1 male mice. Conditions: 100 μg/20 μL s.c., for 24 h.
Description: as §1
In this test, 100 µg of the compounds were administered subcutaneously in a volume of 20 µL in the dorsal surface of mice hind paw; this was done 15 min before a subcutaneous injection (20 μL/paw) of zymosan A (2.5% w/v in saline) into the same paw. Then, paw edema was calculated as formerly described. […] Paw volume was quantified using a hydroplethysmometer modified for small volumes (Ugo Basile, Varese, Italy) three times before the injections and at 1, 2, 3, 4 and 24 h thereafter.

Test [7] concerns zymosan-induced thermal hyperalgesia. The experiment in a line: Zymosan-induced hyperalgesia (plantar test). Conditions: 100 μg/20 μL s.c., after 3 h. Type of test: in vivo, CD-1 male mice.
Description: as §1, with “All procedures were performed to decrease the number of animals used (n = 6 per group) and their distress.” left out
The compounds (100 µg) were administered subcutaneously in a volume of 20 µL in the dorsal surface of mice hind paw; this was done 15 min before a subcutaneous injection (20 μL/paw) of zymosan A (2.5% w/v in saline) into the same paw before the measurement of hyperalgesia. The sensitivity to a noxious heat stimulus was measured by the plantar test (Ugo Basile, Italy), in order to evaluate thermal hyperalgesia after the zymosan-induced inflammation of the mouse hind paw. […] Furthermore, on the test day, the animals were acclimatized to the experimental room 1 h before paw withdrawal latency (PWL) was calculated. […]

Each structure is given as a SMILES string. Where two headings read alike, the source gives them in different places.

T1 sequence (P20272 whole entry): as above

`CCCCCn1cc(C(=O)c2cccc3ccccc23)c2ccccc21` [JWH-018, reference compound]: in test [1], the inhibitory constant (Ki) was 3.5 ± 1 nM. In test [2], the “[35S]GTPγS Binding Emax” value is 163 ± 5.2% and the EC50 is 16 ± 3 nM.
Consider `CC(C)(C)[C@H](NC(=O)c1nn(Cc2ccc(Cl)cc2Cl)c2ccccc12)C(=O)O` [LONI1, (S)-2-(1-(2,4-dichlorobenzyl)-1H-indazole-3-carboxamido)-3,3-dimethylbutanoic acid], for which, in test [2], the “[35S]GTPγS Binding Emax” value is 84 ± 6.6% and the EC50 is more than 1000 nM.
As to `COC(=O)[C@@H](NC(=O)c1nn(Cc2ccc(Cl)cc2Cl)c2ccccc12)C(C)(C)C` [LONI2, (S)-methyl-2-(1-(2,4-dichlorobenzyl)-1H-indazole-3-carboxamido)-3,3-dimethylbutanoate], in the test with food intake, the “effect on food intake” value is listed as “reduce food intake”. In addition, in test [2], the “[35S]GTPγS Binding Emax” value is 143 ± 5.7% and the half-maximal effective concentration (EC50) is 8.4 nM.
`CC(C)(C)[C@H](NC(=O)c1nn(Cc2ccc(Cl)cc2Cl)c2ccccc12)C(N)=O` [LONI3, (S)-N-(1-amino-3,3-dimethyl-1-oxobutan-2-yl)-1-(2,4-dichlorobenzyl)-1H-indazole-3-carboxamide]: in test [2], the “[35S]GTPγS Binding Emax” value is listed as 139 ± 4.5% and the EC50 was 126 nM.
Regarding `CC(C)[C@H](NC(=O)c1nn(Cc2ccc(Cl)cc2Cl)c2ccccc12)C(=O)O` [LONI4, (S)-2-(1-(2,4-dichlorobenzyl)-1H-indazole-3-carboxamido)-3-methylbutanoic acid], the “effect on food intake” value in the test with food intake was “reduce food intake”. Moreover, in test [2], the “[35S]GTPγS Binding Emax” value is on record as 82 ± 10.6% and the EC50 was more than 1000 nM.
Regarding `CNC(=O)[C@@H](NC(=O)c1nn(Cc2ccc(Cl)cc2Cl)c2ccccc12)C(C)C` [LONI10, (S)-1-(2,4-dichlorobenzyl)-N-(3-methyl-1-(methylamino)-1-oxobutan-2-yl)-1H-indazole-3-carboxamide], the Ki in test [3] was determined as 84 ± 3.4 nM. Also, in test [4], the maximal response (Emax) came out at 100 ± 1.7%.
In test [3], `CNC(=O)[C@@H](NC(=O)c1nn(Cc2ccc(Cl)cc2Cl)c2ccccc12)C(C)(C)C` [LONI11, (S)-1-(2,4-dichlorobenzyl)-N-(3,3-dimethyl-1-(methylamino)-1-oxobutan-2-yl)-1H-indazole-3-carboxamide] displayed an inhibition constant (Ki) of 11 ± 1.2 nM. In test [4], this compound showed a 50% effective concentration (EC50) of 200 ± 13 nM and a maximum response (Emax) of 151 ± 3%. The “potency in GTP-binding protein stimulation relative to WIN55,212” value in test [4] (compared with WIN55,212) is listed as “three-fold less potency”. In the test with food intake, the “effect on food intake” value is “increased the food intake”. Moreover, the “antinociceptive effect in formalin test” value in test [5] is on record as “slight antinociceptive effect”. In test [6], the “percent of paw volume (zymosan-induced edema)” value was 100%. For the same compound, in test [7], the “percent of paw latency (zymosan-induced hyperalgesia)” value is “about 50%”.
With `CNC(=O)[C@H](CC(C)C)NC(=O)c1nn(Cc2ccc(Cl)cc2Cl)c2ccccc12` [LONI12, (S)-1-(2,4-dichlorobenzyl)-N-(4-methyl-1-(methylamino)-1-oxopentan-2-yl)-1H-indazole-3-carboxamide], the affinity in test [3] corresponds to a Ki of 320 ± 16 nM. The compound further showed an Emax in test [4] of 101 ± 1%.
For the compound `Cc1c(C(=O)NN2CCCCC2)nn(-c2ccc(Cl)cc2Cl)c1-c1ccc(Cl)cc1` [rimonabant, 5-(4-chlorophenyl)-1-(2,4-dichloro-phenyl)-4-methyl-N-(piperidin-1-yl)-1H-pyrazole-3-carboxamide, reference compound], the “effect on food intake” value with food intake is “reduce food intake”.
